Laboratory results from patent US20230339896A1, “HPK1 INHIBITORS AND USES THEREOF” (QILU REGOR THERAPEUTICS INC., priority 2020, published 2023).

Tested on: Human Pan T cells
Test: IL2 & IFN-γ released by human pan T cell (ELISA)
Format: cell-based
Details: for EC50 / Human Pan T cells EC2x (nM, IL-2): IL-2, anti-CD3/CD28 stimulation, 48 hours; for Human Pan T cells EC2x (nM, IL-2): concentration giving 200% response (2 folds) over DMSO control; for Max fold change: IL-2 response over DMSO control; for Max fold change / efficacy in inducing IL-2 production: human pan T cells
Text: This example is an assay method that can be used to determine compound effects on IL2 & IFN-γ release using pan T cells and ELISA assay format.
Procedures for Pan T isolation and Reagent preparation (Day 0): • 1. Cell Growth Medium: • RPMI1640: ATCC, Cat# 30-2001 • 10% FBS: Gibco, Cat# 10099141 • 1% Pen-Strep: Gibco, Cat # 15140122 • 1% Non-essential amino: Gibco, Cat #11140050 • Beta- Mercaptoethanol: Gibco, Cat#21985023 • 2. Pan T isolation buffer preparation: • Prepare a solution containing phosphate-buffered saline (PBS), pH 7.2, 0.5% bovine serum albumin (BSA), and 2 mM EDTA by diluting MACS® BSA Stock Solution (# 130-091-376) 20 times with autoMACS® Rinsing Solution. Keep buffer at 4° C. Degas buffer before use, as air bubbles could block the column.
• 3. Thawing of frozen PBMC • 1) Pre-heat medium at 37° C. water bath. • 2) Rapidly thaw cells in 37° C. water bath. • 3) Add the pre-warmed medium into 15 mL tube. Transfer cells to the tube. • 4) 300 × g centrifuge for 8 min. (centrifuge increase 0, decrease 0). • 5) Wash the PBMC using Rinsing buffer. • 6) Centrifuge PBMC at 300 × g for 8 min, wash it twice (centrifuge increase 9, decrease 1). • 7) Resuspend the cells with Pan T cells isolation buffer and count cells number. • 4. Pan T cells isolation: • Cell staining with microbead cocktail • 1) Prepare cells and determine cell number. Filter cells by 70 µm cell strainer. • 2) Resuspend cell pellet in 40 µL of buffer per 10^7 total cells. • 3) Add 10 µL of Pan T Cell Biotin-Antibody Cocktail per 10^7 total cells. • 4) Mix well and incubate for 10 minutes in the refrigerator (ice). • 5) Add 30 µL of buffer per 10^7 total cells. • 6) Add 20 µL of Pan T Cell MicroBead Cocktail per 10^7 total cells. • 7) Mix well and incubate for 15 minutes in the refrigerator (ice). • 8) Proceed to subsequent magnetic cell separation.
Subsequent manual cell separation: • 1) Place LS Column in the magnetic field of a suitable MACS Separator. For details refer to the respective MACS Column data sheet. • 2) Prepare column by rinsing with 3 mL of buffer. • 3) Apply cell suspension onto the column. Collect flow-through, which represents the enriched T cells. • 4) Wash column with 5 mL of buffer. Collect unlabeled cells that pass through, representing the enriched T cells.
Reminder: Always wait until the column reservoir is empty before proceeding to the next step. • 5. Pan T cell FACS: • 1) Take out 50 µL of PBMC and Pan T cells to FACS tubes respectively. • 2) Incubate cells with anti-human CD3/CD4/CD8 antibodies (1 µL/1 µL/1 µL /tube) for 20 min at 4° C. For unstained control, incubate cells with FACS staining buffer. • 3) Wash 2 times with cold staining buffer (PBS with 0.2%BSA and 1 mM EDTA). • 4) Run FACS. Gate CD3^+, CD3^+CD4^+, and CD3^+CD8^+ population for % analysis. • 5) If the purity of Pan T cells is higher than 90%, dilute cell suspension to 1 million cells/mL with the appropriate volume of Cell Culture Media. • 6) Dispense the cell suspension into a sterile, disposable reservoir for future use.
Procedures for preparation of compounds and anti-human CD3/CD28 (Day 0): • 1. Compound preparation • Compound serial dilution (source plate 1000×) • Compounds are solubilized in 100% DMSO to a concentration of 10 mM. Then they were 3-fold serially diluted to 8-point doses. • 4× Compound dose preparation (inter plate: Corning-3599): • Prepare 4× compound solution in culture medium. Pipet up and down. For the ZPE control, prepare 0.4% DMSO (4×) in culture medium. For the HPE control, prepare 0.4 µM of RGT003-026 (4×) in culture medium. • 2. Anti-human CD3 (stock conc. 6.76 mg/ml): stored at 4° C. • 1) Dilute anti-human CD3 with PBS to final conc. of 0.5 µg/mL. • 2) Add 50 µL /well of CD3 to each well, except for the positive and negative control wells. […] Rinse each well twice with 200 µL of sterile PBS each time. • 3. […]

Question: What does the source list for `COc1cc2c(cc1Nc1ncc(Cl)c(N3CC(CC(=O)O)c4ccccc43)n1)CN(C)CC2` (stereo not shown) [Compound 8, reference compound]?
Answer: EC50 (Homo sapiens, T-cell): 275 nM; Human Pan T cells EC2x (nM, IL-2): 240 (N = 2) nM; Max fold change: 3.29 (N = 2)

Question: For `COc1cc2c(cc1Nc1ncc(Cl)c(N3CC(C)(CC(=O)O)c4ccc(F)cc43)n1)CN(C)CC2` (stereo not shown) [Compound 10, reference compound], which EC50 (Homo sapiens, T-cell) is on record?
Answer: 17.4 nM

Question: And the “Human Pan T cells EC2x (nM, IL-2)” value?
Answer: 15.6 (N = 5) nM

Question: What about the Max fold change of the same compound?
Answer: 3.05 (N = 5)

Question: Which EC50 (Homo sapiens, T-cell) does the source give for `COc1cc2c(cc1Nc1ncc(Cl)c(N3CC(C)(CC(=O)O)c4ccccc43)n1)CN(C)CC2` (stereo not shown) [Example 1, 2-(1-(5-chloro-2-((6-methoxy-2-methyl-1,2,3,4-tetrahydroisoquinolin-7-yl)amino)pyrimidin-4-yl)-3-methylindolin-3-yl)acetic acid] here?
Answer: 50 nM

Question: What about the “Human Pan T cells EC2x (nM, IL-2)” value of the same compound?
Answer: 28 (N = 5) nM

Question: What about the Max fold change of the same compound?
Answer: 3.98 (N = 5)

Question: What about the “efficacy in inducing IL-2 production” value of the same compound?
Answer: good efficacy

Question: `COc1cc2c(cc1Nc1ncc(Cl)c(N3CC(C)(CC(=O)O)c4ccccc43)n1)CN(C)CC2` (single isomer, unassigned) [Example 2, (R)-2-(1-(5-chloro-2-((6-methoxy-2-methyl-1,2,3,4-tetrahydroisoquinolin-7-yl)amino)pyrimidin-4-yl)-3-methylindolin-3-yl)acetic acid or (S)-2-(1-(5-chloro-2-((6-methoxy-2-methyl-1,2,3,4-tetrahydroisoquinolin-7-yl)amino)pyrimidin-4-yl)-3-methylindolin-3-yl)acetic acid] was tested. Which EC50 (Homo sapiens, T-cell) did it give?
Answer: 16.2 nM

Question: And the “Human Pan T cells EC2x (nM, IL-2)” value?
Answer: 12.5 (N = 10) nM

Question: And the Max fold change?
Answer: 3.2 (N = 10)

Question: And the “efficacy in inducing IL-2 production” value?
Answer: good efficacy

Question: What does the source list for `COc1cc2c(cc1Nc1ncc(Cl)c(N3CC(C(=O)O)c4ccccc43)n1)CN(C)CC2` (stereo not shown) [Compound 7, reference compound]?
Answer: EC50 (Homo sapiens, T-cell): 278 nM; Human Pan T cells EC2x (nM, IL-2): 338 (N = 6) nM; Max fold change: 3.2 (N = 6)

Question: `CN1CCc2cc(F)c(Nc3ncc(Cl)c(N4CC(C)(CC(=O)O)c5ccccc54)n3)cc2C1` (stereo not shown) [Example 4, 2-(1-(5-chloro-2-((6-fluoro-2-methyl-1,2,3,4-tetrahydroisoquinolin-7-yl)amino)pyrimidin-4-yl)-3-methylindolin-3-yl)acetic acid] was tested. Which EC50 (Homo sapiens, T-cell) did it give?
Answer: 31.5 nM

Question: What about the “Human Pan T cells EC2x (nM, IL-2)” value of the same compound?
Answer: 20.5 (N = 2) nM

Question: And the Max fold change?
Answer: 3.84 (N = 2)

Question: What about the “efficacy in inducing IL-2 production” value of the same compound?
Answer: good efficacy

Question: For `CN1CCc2cc(F)c(Nc3ncc(Cl)c(N4C[C@](C)(CC(=O)O)c5ccccc54)n3)cc2C1` (single isomer, unassigned) [Example 5, (R)-2-[1-[5-chloro-2-[(6-fluoro-2-methyl-3,4-dihydro-1H-isoquinolin-7-yl)amino]pyrimidin-4-yl]-3-methyl-indolin-3-yl]acetic acid or (S)-2-[1-[5-chloro-2-[(6-fluoro-2-methyl-3,4-dihydro-1H-isoquinolin-7-yl)amino]pyrimidin-4-yl]-3-methyl-indolin-3-yl]acetic acid], which EC50 is on record?
Answer: 17.4 nM

Question: And the “Human Pan T cells EC2x (nM, IL-2)” value?
Answer: 7.5 nM

Question: And the Max fold change?
Answer: 3.88

Question: What about the “efficacy in inducing IL-2 production” value of the same compound?
Answer: good efficacy
